In patent US5266328A, “Laminin a chain polypeptides from the carboxy terminal globular domain” (Regents of the University of Minnesota, priority 1990, dated 1993):

What was measured:
[1] = Solid-phase binding of 3H-heparin to peptides adsorbed to plastic plates (RLBA)
Description: The binding of ^3 H-heparin to laminin A chain peptides was measured in a direct solid phase binding assay as described below, whereby various amounts of the peptides were adsorbed to plates and ^3 H-heparin was added to each well. More specifically, the binding of ^3 H-heparin (0.3 mCi/mg; Du Pont - New England Nuclear Research Products, Wilmington, Del.) to laminin, synthetic peptides, and bovine serum albumin (BSA) (fatty acid free, fraction V, ICN Immunobiologicals) was quantititated by a solid-phase RLBA in 96-well polystyrene Immulon 1 plates (Dynatech Laboratories, Inc., Alexandria, Va.) as described by Skubitz et al., supra (1988). Specifically, 50 microliters of the various proteins at various concentrations (0.2 μg/well-5.0 μg/well) in PBS containing 0.02% NaN3 was added to each well and dried overnight at 29° C. The next day, 200 μl of 2 mg/ml BSA in PBS was added to each well, followed by a 2 hour incubation at 37° C. After removal of this buffer, 50 μl of ^3 H-heparin (200,000 dpm) was added in RLBA buffer (20 mM Tris, pH 6.8 containing 50 mM NaCl and 2 mg/ml ovalbumin) and the wells were incubated at 37° C. for 2 hours. Unbound ^3 H-heparin was removed by washing three times with wash buffer (RLBA buffer containing 0.1% CHAPS). Tritiated heparin was solubilized by incubation with 200 μl of 0.05N NaOH and 1% SDS for 30 minutes at 60° C. and quantitated in a Beckman LS-3801 scintillation counter.
The above experimental procedure was repeated to determine the percentage of ^3 H-heparin that would adhere to 2 μg/well of each polypeptide after a two-hour incubation in increasing concentrations of salt (NaCl).

[2] = tested on: human colon carcinoma KM12 C (low metastatic) cell line; experiment: Direct cell adhesion to peptide-coated surfaces; format: cell-based; details: surface coated with 1 μg
Source text: (§1) The murine melanoma K-1735-C10 (low metastatic) and K-1735-M4 (high metastatic) cell lines, murine UV-2237-MM fibrosarcoma cell line, human renal carcinoma SN12 C (low metastatic) and SN12 PM-6 (high metastatic) cell lines, and human colon carcinoma KM12 C (low metastatic) and KM12 SM (high metastatic) cell lines were originally provided by Dr. I. J. Fidler (M.D., Anderson Hospital, University of Texas Health Sciences Center, Houston, Tex.). The human fibrosarcoma HT-1080 cell line was obtained from the ATCC. The MM fibrosarcoma cell line was maintained in DME (GIBCO Laboratories, Grand Island, N.Y.) containing 10% FBS, the murine melanomas were maintained in DMEM containing 10% calf serum, the human fibrosarcoma cells were maintained in EMEM containing 10% heat inactivated FBS, and the human renal and colon carcinoma cells were grown in EME containing 10% FBS, vitamins, and 1 mM sodium pyruvate. Cells were passaged for 4 to 5 weeks and then replaced from frozen stocks of early passage cells to minimize phenotypic drift. Cells were maintained at 37° C. in a humidified incubator containing 5% CO2.
(§2) The direct adhesion of cells to protein or peptide coated surfaces was performed as described in Skubitz et al., Exp. Cell Res., 173, 349-360 (1987) and Charonis et al., supra (1988). Briefly, radiolabeled cells were added to 96-well microtiter plates coated with various concentrations of synthetic peptides, laminin, or BSA (0.02 μg/well-50 μg/well from 50 μl solutions) for various lengths of time. After the incubation period, loosely or nonadherent cells were removed by washing the wells three times. Adherent cells were solubilized and quantitated in a scintillation counter. More specifically, cultures of cells which were 60-80% confluent were metabolically labeled for 24 hours with the addition of 3 μCi/ml of ^3 H-td (tritiated thymidine). On the day of the assay, the cells were harvested by trypsinization, the trypsin was inhibited by the addition of serum, and the cells were washed free of this mixture and resuspended in DMEM buffered with HEPES at pH 7.2. The adhesion medium also contained 2 mg/ml BSA. The cells were adjusted to a concentration of 3-4×10^4 /ml, and 100 μl of this cell suspension was added to the wells. The assay mixture was then incubated at 37° C. for 120 minutes. At the end of the incubation, the wells were washed with warm DMEM/Hepes containing 2 mg/ml BSA, and the adherent population was solubilized with 0.5N NaOH contained 1% SDS. The solubilized cells were then quantitated using a liquid scintillation counter.
(§3) Instead of attempting to characterize the cell binding activity of all 14 of the synthetic peptides, a number of peptides from each of the three heparin binding categories of peptides were evaluated. Microtiter wells were adsorbed with the peptides, laminin, or BSA and a variety of tumor cell lines were tested for the ability to adhere to the ligands. The eight different cell lines selected for this study were of murine or human origin and, in most cases, of either high or low metastatic capacity. […] Many of the peptides that were very good at binding heparin and cells were also capable of inhibiting the adhesion of various cells to surfaces coated with laminin (see below).

[3] = tested on: human colon carcinoma KM12 SM (high metastatic) cell line; experiment: Direct cell adhesion to peptide-coated surfaces; format: cell-based; details: surface coated with 1 μg
Source text: as §1, §2, §3

[4] = tested on: human renal carcinoma SN12 C (low metastatic) cell line; experiment: Direct cell adhesion to peptide-coated surfaces; format: cell-based; details: surface coated with 1 μg; human renal (SN12C)
Source text: as §1, §2, §3

[5] = tested on: human renal carcinoma SN12 PM-6 (high metastatic) cell line; experiment: Direct cell adhesion to peptide-coated surfaces; format: cell-based; details: surface coated with 1 μg; human renal (SN12 PM6)
Source text: as §1, §2, §3

[6] = tested on: murine UV-2237-MM fibrosarcoma cell line; experiment: Direct cell adhesion to peptide-coated surfaces; format: cell-based; details: surface coated with 1 μg
Source text: as §1, §2, §3

[7] = tested on: murine melanoma K-1735-C10 (low metastatic) cell line; experiment: Direct cell adhesion to peptide-coated surfaces; format: cell-based; details: surface coated with 1 μg
Source text: as §1, §2, §3

[8] = tested on: murine melanoma K-1735-M4 (high metastatic) cell line; experiment: Direct cell adhesion to peptide-coated surfaces; format: cell-based; details: surface coated with 1 μg
Source text: as §1, §2, §3

[9] = tested on: human fibrosarcoma HT-1080 cell line; experiment: Direct cell adhesion to peptide-coated surfaces; format: cell-based; details: surface coated with 1 μg; human fibrosarcoma (HT1080)
Source text: (§4) The murine melanoma K-1735-C10 (low metastatic) and K-1735-M4 (high metastatic) cell lines, murine UV-2237-MM fibrosarcoma cell line, human renal carcinoma SN12 C (low metastatic) and SN12 PM-6 (high metastatic) cell lines, and human colon carcinoma KM12 C (low metastatic) and KM12 SM (high metastatic) cell lines were originally provided by Dr. I. J. Fidler (M.D., Anderson Hospital, University of Texas Health Sciences Center, Houston, Tex.). The human fibrosarcoma HT-1080 cell line was obtained from the ATCC. […]
(§5) The direct adhesion of cells to protein or peptide coated surfaces was performed as described in Skubitz et al., Exp. Cell Res., 173, 349-360 (1987) and Charonis et al., supra (1988). […] Adherent cells were solubilized and quantitated in a scintillation counter. […] The solubilized cells were then quantitated using a liquid scintillation counter.
(§6) Instead of attempting to characterize the cell binding activity of all 14 of the synthetic peptides, a number of peptides from each of the three heparin binding categories of peptides were evaluated. […]
Radiolabeled HT-1080 human fibrosarcoma cells were incubated in the wells for 30 minutes and the adhesion of cells was quantitated.

[10] = tested on: eight different cell lines of murine or human origin; experiment: Direct cell adhesion, summary over eight tumor cell lines; format: cell-based; details: summary of Table IV over eight cell lines
Source text: as §4, §5, §6

[11] = tested on: human colon (KM12 C) cells; experiment: Inhibition of cell adhesion to laminin-coated surfaces; format: cell-based; details: soluble peptide 10 μg/ml, surface coated with 1.5 μg of laminin
Source text: as §1
(§7) Inhibition of cell adhesion with synthetic peptides was performed using assays similar to those described by Skubitz et al., supra (1987). Briefly, radiolabeled cells at 5×10^4 /ml were incubated for 30 minutes with various concentrations of synthetic peptides (1.0 μg/ml-200 μg/ml) in DME/Hepes containing 2 mg/ml BSA. One hundred microliters of the cell suspension was then added to wells precoated with 1.5 μg of laminin, 1.0 μg of type IV collagen, or 1.0 μg of fibronectin. The cells were incubated for 30 minutes at 37° C., then the wells were washed and adherent cells were quantitated as previously described [Skubitz et al., supra (1987)]. Cell viability after a one hour incubation in the presence of the "inhibitors" was assessed by trypan blue dye exclusion.

[12] = tested on: human fibrosarcoma (HT1080) cells; experiment: as above; format: cell-based; details: soluble peptide 20 μg/ml, surface coated with 1.5 μg of laminin
Source text: as §1, §7

[13] = tested on: human renal (SN12 PM6) cells; experiment: as above; format: cell-based; details: soluble peptide 10 μg/ml, surface coated with 1.5 μg of laminin
Source text: as §1, §7

[14] = tested on: human renal (SN12C) cells; experiment: as above; format: cell-based; details: soluble peptide 10 μg/ml, surface coated with 1.5 μg of laminin
Source text: as §1, §7

[15] = tested on: murine fibrosarcoma (MM) cells; experiment: as above; format: cell-based; details: soluble peptide 10 μg/ml, surface coated with 1.5 μg of laminin
Source text: as §1, §7

[16] = tested on: murine melanoma (C10) cells; experiment: as above; format: cell-based; details: soluble peptide 10 μg/ml, surface coated with 1.5 μg of laminin
Source text: as §1, §7

[17] = tested on: murine melanoma (M4) cells; experiment: as above; format: cell-based; details: soluble peptide 10 μg/ml, surface coated with 1.5 μg of laminin
Source text: as §1, §7

[18] = tested on: HT-1080 human fibrosarcoma cells; experiment: Cell spreading assay; format: cell-based; details: for Surface Area Occuppied by a Cell / Surface Area Occupied by a Cell: wells coated at 100 μg/ml, 2 1/2 hour incubation; for Surface Area Occuppied by a Cell: HT-1080, Table VII; for Surface Area Occupied by a Cell: human fibrosarcoma (HT1080), Table VI
Description: (§8) Spreading of the adherent cells was evaluated by performing adhesion assays similar to those described above. Twenty-four well tissue culture plates (Becton Dickinson and Co., Lincoln Park, N.J.) were coated with 300 μl of laminin, synthetic peptides, or BSA at 100 μg/ml, then blocked with 2 mg/ml BSA in PBS. Three hundred microliters of a cell suspension at 5×10^4 cells/ml was added to each well, and after a 21/2 hour incubation, nonadherent cells were aspirated out of the wells. Adherent cells were fixed with 2% glutaraldehyde in PBS at 23° C. for one hour. The glutaraldehyde was then removed and the cells were stained by two different techniques. For photographic purposes, the cells were stained with Diff-Quik Solution I (American Scientific Products, McGaw Park, Ill.) for 10 minutes at 23° C. Solution I was removed, then Diff-Quik Solution II was added and the cells were stained for another 10 minutes at 23° C. Wells were washed with PBS, then representative cells were photographed with a Nikon DIAPHOT inverted phase microscope using Panatomic X Film ASA32 (Eastman Kodak, Rochester, N.Y.). Adherent cells to be quantitated for spreading were stained overnight at 23° C. with 500 μl of a solution containing 0.12% (w/v) Coomassie Brilliant Blue R (Sigma Chemical Co.), 5% (v/v) acetic acid, and 50% (v/v) ethanol. Wells were washed three times with 500 μl of PBS and cell spreading was then quantitated by measuring the average surface area occupied by a cell using an Opti-Max Image Analyzer. Thirty cells were measured per well; each experiment was done in quadruplicate and repeated three times. In all cases, the cells spread on the peptides to occupy an area about 60% of that seen on laminin-coated surfaces.

[19] = tested on: human renal (SN12 PM6) cells; experiment: Cell spreading assay; format: cell-based; details: wells coated at 100 μg/ml, 2 1/2 hour incubation
Description: as §8

[20] = tested on: human renal (SN12C) cells; experiment: Cell spreading assay; format: cell-based; details: wells coated at 100 μg/ml, 2 1/2 hour incubation
Description: as §8

[21] = tested on: murine fibrosarcoma (MM) cells; experiment: Cell spreading assay; format: cell-based; details: wells coated at 100 μg/ml, 2 1/2 hour incubation
Description: as §8

Substance | Percentage of Cells Adhered to Surface [2] | Percentage of Cells Adhered to Surface [4] | Percentage of Cells Adhered to Surface [5] | Percentage of Cells Adhered to Surface [6] | Percentage of Cells Adhered to Surface [7] | Percentage of Cells Adhered to Surface [8] | Percentage of Cells Adhered to Surface [9] | Surface Area Occuppied by a Cell [18] | Surface Area Occupied by a Cell [18] | Surface Area Occupied by a Cell [19] | Surface Area Occupied by a Cell [20] | Surface Area Occupied by a Cell [21] | also measured
KQNCLSSRASFRGCVRNLRLSR [Peptide R30, laminin A chain residues 3011-3032] | 48% | 84% | 67% | 56% | 82% | 25% | 92% | 392 +/- 27 um2 | 392 ± 27 μm^2 | 311 ± 19 μm^2 | 292 ± 22 μm^2 | 291 ± 21 μm^2 | Heparin Binding (bound ^3 H-heparin as percent of input) ([1]; One microgram peptide adsorbed, 200,000 dpm ^3 H-heparin, 20 mM Tris pH 6.8, 50 mM NaCl, 2 mg/ml ovalbumin): **** (>10% [****]); Bound ^3 H-heparin as percent of input, 0.05M NaCl ([1]; Two micrograms peptide adsorbed, 0.02M Tris pH 6.8, 0.05M NaCl, 2 hr 37 C): **** (>10% (****)); Bound ^3 H-heparin as percent of input, 0.15M NaCl ([1]; Two micrograms peptide adsorbed, 0.02M Tris pH 6.8, 0.15M NaCl, 2 hr 37 C): **** (>10% (****)); Bound ^3 H-heparin as percent of input, 0.5M NaCl ([1]; Two micrograms peptide adsorbed, 0.02M Tris pH 6.8, 0.5M NaCl, 2 hr 37 C): *** (6.0-10.0% (***)); Bound ^3 H-heparin as percent of input, 1.0M NaCl ([1]; Two micrograms peptide adsorbed, 0.02M Tris pH 6.8, 1.0M NaCl, 2 hr 37 C): * (2.0-3.9% (*)); Heparin binding activity group ([1]; grouping of the Table II results in words): very good heparin binding; Percentage of Cells Adhered to Surface [3]: 69%; promotion of cell adhesion, in words [10]: capable of promoting the adhesion of all eight cell lines; Percentage Inhibition of Laminin-Mediated Cell Adhesion [11]: 59%; Percentage Inhibition of Laminin-Mediated Cell Adhesion [12]: 51%; Percentage Inhibition of Laminin-Mediated Cell Adhesion [13]: 44%; Percentage Inhibition of Laminin-Mediated Cell Adhesion [14]: 0%; Percentage Inhibition of Laminin-Mediated Cell Adhesion [15]: 25%; Percentage Inhibition of Laminin-Mediated Cell Adhesion [16]: 22%; Percentage Inhibition of Laminin-Mediated Cell Adhesion [17]: 38%; HT-1080 cell spreading, in words ([18]; ranking of Table VII): promoted the most cell spreading
Laminin: extracellular matrix glycoprotein isolated from the EHS murine tumor; positive control | 11% | 28% | 36% | 53% | 58% | 13% | 41% | 610 +/- 62 um2 | 610 ± 62 μm^2 | 550 ± 29 μm^2 | 520 ± 14 μm^2 | 443 ± 32 μm^2 | 
